{"source": "the RepoRT retention time repository (doi:10.1021/acs.analchem.2c02893)", "data": [{"test": "RP, Thermo Scientific Acclaim RSLC 120 C18, 100 × 2.1 mm, 2.2 µm, 30 °C, 0.2 mL/min, estimated dead time 1.1 min; A: 90% water + 10% methanol + 0.01% formic acid + 5 mM ammonium formate, pH 3.61; B: methanol + 0.01% formic acid + 5 mM ammonium formate, pH 3.61; gradient (min/%B) 0/1 1/1 2/39 13/99.9 15/99.9 15.1/1 20.1/1", "details": "stereoisomer not certain", "units": {"LC retention time": "min"}, "values": [{"smiles": "Cc1ncc([N+](=O)[O-])n1C", "note": "[Dimetridazole]", "LC retention time": 4.27}, {"smiles": "CC1CCC2(OC1)OC1CC3C4CC=C5CC(O)CCC5(C)C4CCC3(C)C1C2C", "note": "(configuration not stated) [Diosgenin]", "LC retention time": 15.1}, {"smiles": "O=C(NC12CC3CC(CC(C3)C1)C2)c1nn(CCCCCF)c2ccccc12", "note": "[AKB48-5F (5F-APINACA)]", "LC retention time": 12.9}, {"smiles": "COc1ccc2c(c1)[nH]c1c(C)nccc12", "note": "[Harmine]", "LC retention time": 5.34}, {"smiles": "COC(=O)c1c(Cl)c(Cl)c(C(=O)OC)c(Cl)c1Cl", "note": "[Chlorthal-dimethyl (DCPA. Dacthal) (NH4)]", "LC retention time": 11.6}, {"smiles": "CN(C)Cc1nnc2n1-c1ccc(Cl)cc1C(c1ccccc1)=NC2", "note": "[Adinazolam]", "LC retention time": 8.28}, {"smiles": "CNC(C)C(=O)c1ccccc1", "note": "(configuration not stated) [Methcathinone]", "LC retention time": 3.68}, {"smiles": "NC(=O)N1c2ccccc2CC(O)c2ccccc21", "note": "(configuration not stated) [Carbamazepine -10-Hydroxy]", "LC retention time": 5.94}, {"smiles": "CC(COc1ccccc1)NC(C)C(O)c1ccc(O)cc1", "note": "(configuration not stated) [Isoxsuprine]", "LC retention time": 5.28}, {"smiles": "CC(CN1c2ccccc2Sc2ccc(S(=O)(=O)N(C)C)cc21)N(C)C", "note": "(configuration not stated) [Dimetotiazine]", "LC retention time": 7.01}, {"smiles": "CC(=O)Nc1cc(NS(=O)(=O)C(F)(F)F)c(C)cc1C", "note": "[Mefluidide]", "LC retention time": 6.85}, {"smiles": "COc1ccccc1N1CCN(CCCC(=O)c2ccc(F)cc2)CC1", "note": "[Fluanisone]", "LC retention time": 6.41}, {"smiles": "CN(C)c1ccc(C(c2ccccc2)c2ccc(N(C)C)cc2)cc1", "note": "[Leuco malachite green (LMG)]", "LC retention time": 13.7}, {"smiles": "O=C(c1ccccc1)c1ccc2n1CCC2C(=O)O", "note": "(configuration not stated) [Ketorolac]", "LC retention time": 6.94}, {"smiles": "CN(C)CCOC1=Cc2ccccc2Sc2ccc(Cl)cc21", "note": "[Zotepine]", "LC retention time": 9.04}, {"smiles": "O=C(O)c1cn(-c2ccc(F)cc2)c2cc(N3CCNCC3)c(F)cc2c1=O", "note": "[Sarafloxacin]", "LC retention time": 4.83}, {"smiles": "CSC(=O)c1c(C(F)F)nc(C(F)(F)F)c(C(=O)SC)c1CC(C)C", "note": "[Dithiopyr]", "LC retention time": 11.7}, {"smiles": "CC(C)(C)Nc1nc(N)[nH]c(=O)n1", "note": "[Terbuthylazine-desethyl-2-hydroxy]", "LC retention time": 3.99}, {"smiles": "CCN1CCN(c2cc3c(cc2F)c(=O)c(C(=O)O)cn3C2CC2)CC1", "note": "[Enrofloxacin]", "LC retention time": 4.64}, {"smiles": "O=c1[nH]sc2ccccc12", "note": "[1,2-Benzisothiazolinone]", "LC retention time": 5.14}, {"smiles": "CC(=O)Oc1cc(C(C)C)c(OCCN(C)C)cc1C", "note": "[Moxisylyte]", "LC retention time": 6.21}, {"smiles": "Cn1cnc2c1c(=O)n(CCCC(=O)O)c(=O)n2C", "note": "[1-(3-carboxypropyl)-3,7-dimethylxanthine]", "LC retention time": 4.48}, {"smiles": "CC(C)N(C(=O)SCC(Cl)=C(Cl)Cl)C(C)C", "note": "[Triallate]", "LC retention time": 12.7}, {"smiles": "CC=C1CC(C)C(C)(O)C(=O)OCC2=CCN(C)CCC(OC1=O)C2=O", "note": "(configuration not stated) [Senkirkine]", "LC retention time": 5.16}, {"smiles": "O=C(c1cccc2ccccc12)c1cn(CCCCO)c2ccccc12", "note": "[JWH-073-M-4-OH-Butyl]", "LC retention time": 9.56}, {"smiles": "CC(C)CN(CC(O)C(Cc1ccccc1)NC(=O)OC1COC2OCCC12)S(=O)(=O)c1ccc(N)cc1", "note": "(configuration not stated) [Darunavir]", "LC retention time": 8.21}, {"smiles": "CSc1nc(N=[N+]=[N-])nc(NC(C)C)n1", "note": "[Aziprotryne]", "LC retention time": 9.71}, {"smiles": "CCC1(c2ccccc2)C(=O)NCNC1=O", "note": "[Primidone]", "LC retention time": 5.29}, {"smiles": "CC(Cc1ccccc1)NCCC#N", "note": "(configuration not stated) [Fenproporex (NARL)]", "LC retention time": 4.14}, {"smiles": "CCCCCCCCCCCCCC(=O)NCCC[N+](C)(C)CCCS(=O)(=O)O", "note": "[Amidosulfobetaine-14]", "LC retention time": 15}, {"smiles": "CCCOc1ccc(S(=O)(=O)NCCC2CCCN2C)cc1-c1nc2c(CCC)nn(C)c2c(=O)[nH]1", "note": "(configuration not stated) [Udenafil]", "LC retention time": 7.83}, {"smiles": "CON=C(Cc1cccnc1)c1ccc(Cl)cc1Cl", "note": "[Pyrifenox]", "LC retention time": 10.1}, {"smiles": "CCCC(=O)OC1(C(=O)CCl)C(C)CC2C3CCC4=CC(=O)C=CC4(C)C3(F)C(=O)CC21C", "note": "(configuration not stated) [Clobetasone butyrate]", "LC retention time": 11.3}, {"smiles": "CSc1nc2ccccc2s1", "note": "[Benzothiazole- 2-Me-S]", "LC retention time": 9.79}, {"smiles": "COCCN(C(=O)CCl)c1c(C)cccc1C", "note": "[Dimethachlor]", "LC retention time": 8.58}, {"smiles": "CCNC1(c2cccc(OC)c2)CCCCC1=O", "note": "(configuration not stated) [Methoxetamine]", "LC retention time": 4.93}, {"smiles": "CC(=O)OCCN1CCN(CCCN2c3ccccc3Sc3ccc(Cl)cc32)CC1", "note": "[Thiopropazate]", "LC retention time": 9.61}, {"smiles": "CCN(CC)CCOC(=O)c1ccc(N)cc1", "note": "[Procaine]", "LC retention time": 3.21}, {"smiles": "Cn1cc(-c2ccccc2)c(=O)c(-c2cccc(C(F)(F)F)c2)c1", "note": "[Fluridone]", "LC retention time": 8.82}, {"smiles": "CCN(CC)C(=O)NC1C=C2c3cccc4[nH]cc(c34)CC2N(C)C1", "note": "(configuration not stated) [Lisuride]", "LC retention time": 5.92}, {"smiles": "CC(Cc1ccccc1)NCCn1cnc2c1c(=O)n(C)c(=O)n2C", "note": "(configuration not stated) [Fenethylline]", "LC retention time": 5.06}, {"smiles": "Cc1cccc(OCC(O)CNC(C)C)c1", "note": "(configuration not stated) [Toliprolol]", "LC retention time": 5.29}]}]}
